Data set [1] concerns Jurkat cells. Nature of the data set: FIM-CNN (FlowCam) cell counts and viability after forced degradation. The format is cell-based. The protocol:
Freeze-thaw stress. […] Further, five 1-ml aliquots were prepared in 1.8-ml Nalgene cryovials, which were submitted to freezing at −18° C. for 3 hours. This amount of time was sufficient for complete freezing of the aliquots. Prior to analysis, the samples were thawed for 2 min at 37° C., pooled and washed with fresh RPMI medium. Control samples were stored at 20° C. for 3 hours and were otherwise treated identically as the freeze-thawed samples. Shaking stress. […] The cryovials were submitted to shaking by constant horizontal agitation at 185 rpm at 25° C. by using an IC 4000 shaker (IKA, Germany). Analysis of cell suspensions of pooled cell aliquots was performed following 3 hours of shaking. Control samples were stored statically and protected from light at 25° C. in cryovials, and subsequently pooled. Flow imaging microscopy (FlowCam, FIM). Cells (viable and necrotic) and debris particles were quantified by using a FlowCam 8100 (Fluid Imaging Technologies, Scarborough, USA) equipped with a 50-μflow cell. […] In total, a sample volume of 140 μL was measured with an efficiency of approximately 63% (i.e., the imaged sample volume was ca. 87 μL). Particles imaged within the flow cell were detected with intensity thresholds of 12 for light and dark pixels. […] Collected images were not sorted by using any morphological filters and samples were measured in triplicate, unless otherwise stated. Image analysis using convolutional neural networks. Particle images captured by using FlowCam were analyzed by using convolutional neural networks (CNN). […] Briefly, the VGG-19 network using rectified linear unit activation functions, punctuated with max-pooling and dropout layers, was pre-trained on the ImageNet dataset (http://image-netorg). The re-training of the network was performed with the first ten layers frozen in order to save computation time and improve accuracy of the model by preserving its pre-learned feature recognition capabilities. For fine-tuning the dataset was split into an 8:1:1 ratio for training, validation and testing, respectively. […]

For data set [2], the system named is Jurkat cells. Nature of the data set: Annexin V-FITC / PI fluorescence-based flow cytometry assay (apoptosis, necrosis). The protocol:
(§1) Cell apoptosis and necrosis were determined by imaging flow cytometry after labelling of the cells with FITC and PI. Sample preparation was carried out according to the Dead Cell Apoptosis Kit instructions. After incubation for 15 min in the dark at room temperature samples were kept on wet ice until analysis. After adjusting the excitation power of the FlowSight imaging flow cytometer to 4 mW, the same instrument settings as described in for the calcein-AM assay above was used. Brightfield as well as fluorescence images in channels 02 (532/55 nm) for FITC and channel 4 (610/30 nm) for PI were recorded. Appropriate morphological filters based on mean intensity, area, aspect ratio and modulation from channel 09 were applied to discriminate between single cells and cell aggregates or debris particles. Once single cells were selected based on brightfield images, mean intensity values from channel 02 (fluorescence) were plotted against the particle area (erode mask) where the positively stained cells were classified as viable.
For selection of necrotic cells, two separate methods were used to induce cell necrosis. […] Images of debris particles were manually selected from measured suspensions of cells submitted to vortexing for approximately 2 min or two freeze-thaw cycles (−140° C.-37° C.).
Background: In flow cytometry, cells or beads pass a laser one at a time.

Data set [3] in a line: calcein-AM assay of cell viability (imaging flow cytometry). The format is cell-based. To be noted: human, Jurkat cells; irrespective of DMSO content (2.5%, 5%, 10% v/v) and time point (T0, freeze-thaw, control). Here is the method: Freeze-thaw stress. DMSO, cooled on wet ice, was slowly added to cell suspensions (placed on wet ice) to reach a target concentration 1%, 2.5%, 5% and 10% (v/v) at a cell concentration of 1×10^6 cells/ml. Further, five 1-ml aliquots were prepared in 1.8-ml Nalgene cryovials, which were submitted to freezing at −18° C. for 3 hours. This amount of time was sufficient for complete freezing of the aliquots. Prior to analysis, the samples were thawed for 2 min at 37° C., pooled and washed with fresh RPMI medium. Control samples were stored at 20° C. for 3 hours and were otherwise treated identically as the freeze-thawed samples.
Imaging flow cytometry. To assess cell viability based on cell metabolism, imaging flow cytometry was used in combination with the membrane-permeable dye calcein-AM (calcein-AM assay), at a final concentration of 6.3 nM in the sample to be analyzed. […] Subsequently, samples were analyzed by using an Amnis FlowSight imaging flow cytometer (Luminex, Seattle, USA) and data was analyzed using IDEAS 6.2.183 (Luminex, Seattle, USA) image analysis software. […] The side scatter laser was set to 10 mW and the 488 nm fluorescence excitation laser was set to 12 mW. Images of the calcein-AM stained cells were recorded in channel 02 (532/55 nm). […]

Data set [4] relates to Jurkat cells. As to the kind of experiment: in vitro.
Description: (§2) Generation of particle images for population discrimination. The CNN was retrained on manually labelled images (4,000-4,500) of each of the three populations: viable cells, necrotic cells and debris particles. […] For selection of necrotic cells, two separate methods were used to induce cell necrosis. […] In order to further define image populations of viable and necrotic cells for the network fine-tuning, morphological parameters, such as aspect ratio, circle fit, convexity, sigma intensity and symmetry, of the two populations were used. Only particles (cells) of morphological parameter values falling between the 10th and 90th percentile of the manually selected population as viable and necrotic cells were taken for input to the training of the model. Images of debris particles were manually selected from measured suspensions of cells submitted to vortexing for approximately 2 min or two freeze-thaw cycles (−140° C.-37° C.).
as §1

Another data set is described as follows: in vitro. The conditions noted are these: human.
Description: as §2, §1

Where [5] appears, read: cell suspensions frozen with 2.5% (v/v) DMSO.
Setting [6] is: staurosporin 1 μM to 500.000 cells/mL, Annexin V-FITC & PI double staining.

Bounds are passed on as bounds.

Take `C[S+](C)[O-]` [DMSO, dimethyl sulfoxide]: the “reduction of cell counts” value in the data set with Jurkat cells [1] (0% and 1% (v/v) DMSO, one freeze-thaw cycle (−18° C. 3 hours, thawing 2 min at 37° C.)) is reported as more than 98%. Also, in the data set with Jurkat cells [1] (setting [5]), the “losses in viability (FIM-CNN assay)” value was “ca. 20%”. The “toxic effects of DMSO (FIM)” value in the data set on Jurkat cells [1] (exposure of 3 hours at RT, 10% (v/v)) is “loss of cell viability”. Also, the “increase in apoptotic cell content” value in the data set with Jurkat cells [2] (human, 3 h) was approximately 2 fold. In addition, the viability (commonly a read-out of living cells in per cent, often relative to untreated cells) in data set [3] is 85 to 90%. Also, in the data set with Jurkat cells [4], the “toxic effects of DMSO (PI assay)” value was “loss of cell viability”. Also, the “drop in cell viability (PI assay)” value in the data set with Jurkat cells [4] (5% and 10% (v/v) DMSO, freeze-thawed and control samples compared to T0) was “ca. 10%”. The “losses in viability (PI assay)” value in the data set on Jurkat cells [4] (setting [5]) is recorded as “ca. 20%”.
With `CCO` [ethanol, reference compound], the viability at 90 min, 10 % (v/v) in “in vitro” amounted to 12.8%.
Regarding `CN[C@@H]1C[C@H]2O[C@@](C)([C@@H]1OC)n1c3ccccc3c3c4c(c5c6ccccc6n2c5c31)C(=O)NC4` [staurosporin], in the data set on Jurkat cells [2] (setting [6]), the necrotic cells entry is “around 6%” and the viable cells is reported as ~ 2%.
